What was measured:
bFGF [1] = target: T1, bFGF (Homo sapiens, UniProt P09038); experiment: Evaluation of bFGF stabilization in Lonza serum-free medium (ELISA); format: biochemical
T1 construct: purchased Lonza (via TAKARA BIO INC.) Ser. No. 00/190,632
In short: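 Compound in PBS diluted 10-fold into serum-free medium and held sealed at 37 °C for 7 days (some sets 3 days). Remaining bFGF quantified by human bFGF sandwich ELISA against a standard curve. Controls were compound-free PBS-medium kept at 37 °C or 4 °C for the same period.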

bFGF [2] = target: T1, bFGF; experiment: Evaluation of bFGF stabilization in Essential 8 medium (ELISA); format: biochemical; conditions: 37° C. for 7 days
In short: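 Test compound in PBS diluted 10-fold into serum-free medium (Essential 8 or ReproFF2), held sealed at 37° C for 7 days; remaining bFGF quantified by ELISA against a standard curve. Controls: PBS without compound diluted into each medium, held 7 days at 37° C or 4° C.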

bFGF [3] = target: T1, bFGF; experiment: Evaluation of bFGF stabilization in ReproFF2 medium (ELISA); format: biochemical; conditions: 37° C. for 7 days
Procedure: (§1) A commercially available measurement kit (human bFGF ELISA kit, ELH-bFGF-001, Ray Biotech) was used for quantification of bFGF in the medium. The measurement procedures followed the protocol attached to the kit. The bFGF concentration of the serum-free medium was calculated from the analytical curve (conversion formula) drawn from the absorbance of an analytical curve standard solution. The evaluation criteria of Tables 5-8 are as follows:
(§2) A test compound was dissolved in phosphate buffered saline, and diluted 10-fold with a serum-free medium to adjust the concentration shown in Table 4 (test sample). The test sample was left standing in a tightly sealed Falcon tube at 37° C. for 7 days, and the bFGF concentration was quantified by ELISA measurement. A phosphate buffered saline without a test compound was diluted 10-fold with Essential 8 medium or ReproFF2 medium, and left standing at 37° C. or 4° C. for 7 days, and used as a control.
as §1, with “Table 13” for “Tables 5-8”
as §2, with “Table 12” for “Table 4”

iPS cell 201B7 strain = experiment: iPS cell proliferation system (cell number); format: cell-based, human; conditions: matrigel, Essential-8 medium
Procedure: The cell proliferation effect of various test compounds was evaluated using artificial pluripotent stem cell (iPS cell). 201B7 strain purchased from iPS Academia Japan, Inc. was grown in a culture container coated with a basal lamina matrix (matrigel manufactured by Nippon Becton Dickinson Company, Ltd., or a fragment containing an active domain of laminin 511 purchased from OSAKA UNIVERSITY) (Becton, Dickinson and Company, Falcon culture petri dish or Falcon culture plate), contained in a feeder-free medium for human ES/iPS cell (ReproCELL Inc, ReproFF2).
In this medium were suspended iPS cells in colony state, and a 2.5- to 3.5-fold diluted amount of the original culture was plated on a 6-well culture plate coated with a basal lamina matrix (Nippon Becton Dickinson Company, Ltd., Falcon culture plate). […] After culturing for 6 to 12 days, the medium was removed, the cells were detached from the culture plate by a trypsin-EDTA (Sigma-Aldrich Ltd.) or TrypLE Select (Invitrogen) treatment and the cell number was measured. The cell number was measured by the method described in “Kaitei Saibou baiyou Nyuumon Note, page 77-83, 2010, YODOSHA CO., LTD.” which is incorporated herein by reference in its entirety.
When the cells were seeded in a dissociation state of the cells (single cell state), a test compound solution after filter sterilization was added to a medium containing Y-27632 (Nacalai Tesque) to a given concentration, and dispensed to a 6 well culture plate. Thereto were plated iPS cells suspended in a medium containing Y-27632 at 100,000 cells/well, and cultured for 6 to 8 days. On the next day of seeding, the medium was exchanged to a medium (without Y-27632) added with the test compound alone. When medium exchange was necessary, the medium was exchanged every 2 or 3 days. […] After culturing for 6 to 8 days, the cell number was measured by a method similar to that mentioned above.
When the evaluation was performed in Essential 8 medium (Invitrogen), which is a different feeder-free medium for iPS cell, iPS cells cultured in a medium obtained by adding human serum albumin (Sigma-Aldrich Co. LLC) to Essential 8 medium were used.

[4] = system: Human bone marrow-derived mesenchymal stem cells; experiment: Mesenchymal stem cell proliferation system (cell number by DNA quantification); conditions: growth of mesenchymal stem cell, control ratio
Procedure: Human bone marrow-derived mesenchymal stem cells (Lonza, Human Mesenchymal Stem Cell) cultured in mesenchymal stem cell-dedicated medium (Lonza, MSCGM) or Dulbecco's Modified Eagle Medium (Invitrogen, GIBCO D-MEM) containing inactivated fetal bovine serum (Invitrogen, GIBCO FBS) and penicillin-streptomycin (Sigma-Aldrich Co. LLC.) were cultured in exchanged Lonza serum-free medium. The mesenchymal stem cells thus-acclimated to serum-free culture were suspended in Lonza serum-free medium, and seeded on a 24 well culture plate (Nippon Becton Dickinson Company, Ltd., Falcon culture plate) at 20,000 cells/well or a 6 well culture plate (Nippon Becton Dickinson Company, Ltd., Falcon culture plate) at 50,000 cells/well. Then, a test compound solution after filter sterilization and adjustment to a given concentration was added, and the cells were cultured in an incubator (Thermo Scientific, Forma incubator) under the 5% CO2/37° C. conditions for 7 to 8 days. When the medium exchange was necessary, the medium was exchanged 2 to 3 days after the seeding. In this case, the test compound solution was also added again in the same manner as in seeding. In this case, various compound solutions were added again in the same manner as in seeding. After culturing for 7 to 8 days, the medium was removed and DNA quantification was performed. As a control, the cells were cultured in the same manner in a medium without a test compound and added with phosphate buffered saline.
The medium in the 24 well culture plate was removed, and the cells were washed with phosphate buffered saline. The sodium lauryl sulfate solution (500 μl/well) was added, and the mixture was left standing at 37° C. for 4 hours. The sodium lauryl sulfate solution (1.0 ml) was also added to a cell pellet with a known cell number, and the mixture was left standing at 37° C. for 4 hours. As for the cells in the 24 well culture plate, a part (50 μl) of the lysate was transferred to a 96 well black microplate. The solution used for treating the cell pellets was successively diluted with sodium lauryl sulfate solution and used as solutions for drawing an analytical curve. Also, a part (50 μl) of the solutions for drawing an analytical curve was each transferred to the 96 well black microplate. […] The fluorescence was measured by a microplate reader (excitation wavelength: 355 nm, measurement wavelength: 460 nm) within 5 minutes from the addition. The cell number of the 24 well cell culture plate was calculated from the analytical curve drawn (conversion formula). The evaluation criteria were as follows.

T1 sequence (P09038 143-288): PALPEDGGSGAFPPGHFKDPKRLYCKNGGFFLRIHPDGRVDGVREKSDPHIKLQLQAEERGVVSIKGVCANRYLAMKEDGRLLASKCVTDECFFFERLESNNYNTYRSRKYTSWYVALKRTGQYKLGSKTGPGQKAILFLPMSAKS

O=S(=O)([O-])OC[C@H]1O[C@@](COS(=O)(=O)[O-])(O[C@H]2O[C@H](COS(=O)(=O)[O-])[C@@H](OS(=O)(=O)[O-])[C@H](OS(=O)(=O)[O-])[C@H]2OS(=O)(=O)[O-])[C@@H](OS(=O)(=O)[O-])[C@@H]1OS(=O)(=O)[O-].[K+].[K+].[K+].[K+].[K+].[K+].[K+].[K+] [sucrose 8SO3K]
concentration showing a suppressive effect on a decrease in the bFGF concentration in the medium (bFGF [1]; Lonza serum-free medium, 37° C. for 3 days): not less than 250 ng/ml | bFGF concentration relative to that of 4° C. control (ELISA) (bFGF [1]; Lonza serum-free medium, 37° C. for 3 days, test compound 25 ng/ml): x (bFGF concentration was less than 10% relative to that of 4 °C control) | bFGF concentration relative to that of 4° C. control (ELISA) (bFGF [1]; Lonza serum-free medium, 37° C. for 3 days, test compound 250 ng/ml): − (bFGF concentration was not less than 10% and less than 30% relative to that of 4 °C control) | bFGF concentration relative to that of 4° C. control (ELISA) (bFGF [1]; Lonza serum-free medium, 37° C. for 3 days, test compound 25 μg/ml): +++ (bFGF concentration was not less than 70% relative to that of 4 °C control) | bFGF concentration relative to that of 4° C. control (ELISA) (bFGF [1]; Lonza serum-free medium, 37° C. for 3 days, test compound 250 μg/ml): +++ (bFGF concentration was not less than 70% relative to that of 4 °C control) | bFGF concentration relative to that of 4° C. control (ELISA) (bFGF [1]; Lonza serum-free medium, 37° C. for 7 days, test compound 25 ng/ml): x (bFGF concentration was less than 10% relative to that of 4 °C control) | bFGF concentration relative to that of 4° C. control (ELISA) (bFGF [1]; Lonza serum-free medium, 37° C. for 7 days, test compound 250 ng/ml): x (bFGF concentration was less than 10% relative to that of 4 °C control) | bFGF concentration relative to that of 4° C. control (ELISA) (bFGF [1]; Lonza serum-free medium, 37° C. for 7 days, test compound 25 μg/ml): − (bFGF concentration was not less than 10% and less than 30% relative to that of 4 °C control) | bFGF concentration relative to that of 4° C. control (ELISA) (bFGF [1]; Lonza serum-free medium, 37° C. for 7 days, test compound 250 μg/ml): + (bFGF concentration was not less than 30% and less than 50% relative to that of 4 °C control) | effectiveness ELISA (bFGF [1]; effectiveness in ELISA evaluation of mesenchymal stem cells (medium), 4° C. control ratio): + (+ 30%<) | concentration showing a suppressive effect on a decrease in the bFGF concentration of the medium (bFGF [2]): not less than 2.5 μg/ml | bFGF concentration relative to that of 4° C. control (ELISA) (bFGF [2]; test compound 250 pg/ml): x (bFGF concentration was less than 10% relative to that of 4 °C control) | bFGF concentration relative to that of 4° C. control (ELISA) (bFGF [2]; test compound 25 ng/ml): x (bFGF concentration was less than 10% relative to that of 4 °C control) | bFGF concentration relative to that of 4° C. control (ELISA) (bFGF [2]; test compound 250 ng/ml): x (bFGF concentration was less than 10% relative to that of 4 °C control) | bFGF concentration relative to that of 4° C. control (ELISA) (bFGF [2]; test compound 25 μg/ml): +++ (bFGF concentration was not less than 70% relative to that of 4 °C control) | bFGF concentration relative to that of 4° C. control (ELISA) (bFGF [2]; test compound 250 μg/ml): +++ (bFGF concentration was not less than 70% relative to that of 4 °C control) | concentration showing a suppressive effect on a decrease in the bFGF concentration of the medium (bFGF [3]): not less than 250 pg/ml | bFGF concentration relative to that of 4° C. control (ELISA) (bFGF [3]; test compound 250 pg/ml): − (bFGF concentration was not less than 10% and less than 30% relative to that of 4 °C control) | bFGF concentration relative to that of 4° C. control (ELISA) (bFGF [3]; test compound 25 ng/ml): +++ (bFGF concentration was not less than 70% relative to that of 4 °C control) | bFGF concentration relative to that of 4° C. control (ELISA) (bFGF [3]; test compound 250 ng/ml): +++ (bFGF concentration was not less than 70% relative to that of 4 °C control) | bFGF concentration relative to that of 4° C. control (ELISA) (bFGF [3]; test compound 25 μg/ml): ++ (bFGF concentration was not less than 50% and less than 70% relative to that of 4 °C control) | bFGF concentration relative to that of 4° C. control (ELISA) (bFGF [3]; test compound 250 μg/ml): +++ (bFGF concentration was not less than 70% relative to that of 4 °C control) | number of cells relative to control (iPS cell 201B7 strain; test compound 25 ng/ml): ◯ (not less than 100%: ◯) | number of cells relative to control (iPS cell 201B7 strain; test compound 250 ng/ml): ◯ (not less than 100%: ◯) | effectiveness cells [4]: ⊚ (⊚ not less than 120%)

Reference: US10689622B2, “Culture medium for proliferating stem cell, which contains sulfated compound” (AJINOMOTO CO., INC., priority 2012, dated 2020)
